Source: patent publication US9873683B2, “P2X4 receptor antagonist” (NIPPON CHEMIPHAR CO., LTD., priority 2013, dated 2018)
pIC50: −log10 of the molar value. Where a name gives a salt, the structure may show the parent alone.

Tests used:
[1] = tested on: mouse neuropathic pain model; assay: Analgesic activity in mouse neuropathic pain model (von Frey filament test); type: in vivo; settings: for pain threshold of diseased limb (von Frey filament test): oral administration of 30 mg/kg, neuropathic pain model mice, versus vehicle administration group; for analgesic activity: oral administration, mouse neuropathic pain model (FIG. 1)
Experimental: Mouse neuropathic pain model was prepared according to the method of Tozaki-Saitoh H. et al. (Tozaki-Saitoh H., Tsuda M., Miyata H., Ueda K., Kohsaka S. and Inoue K.; P2Y12 Receptors in Spinal Microglia Are Required for Neuropathic Pain after Peripheral Nerve Injury. Neuroscience, 28(19): 4949-4956 (2008)). Under isoflurane anesthesia, back hair of mice was extensively shaved, the shaved parts were wiped with rubbing alcohol, and the mice were fixed in the prone position on a heating pad. The skins were cut and opened along the dorsal median line on the upper and lower sides of the head end of the sacroiliac bone in a length of about 1 cm each, with confirming the head end of the bone with fingers. The left lateral paravertebral muscle was separated in the sacral region, and then the ligament was separated. The sacroiliae rim and the upper part thereof were cut and opened along the pyramid, and the transverse process of the first sacral vertebra (S1) was confirmed. The transverse process of S1 was removed, the fourth lumber nerve (L4) running just under the transverse process was confirmed and cut, and the operative wound was sutured.
The pain threshold (paw withdrawal threshold (g)) was measured by stimulating the soles of mice with each of seven von Frey filaments (Stoelting Co., TOUCH-TEST SENSORY EVALUATOR) that gave different stimulation strengths, and determining presence or absence of withdrawal response. The 50% threshold was calculated according to the up down method with reference to the method of Chaplan et al. (Chaplan S R, Bach F W, Pogrel J W, Chung J M, Yaksh T L: Quantitative assessment of tactile allodynia in the rat paw, J. Neurosci. Method, 53:55-63 (1994)).
For evaluation of efficacy, each of the compounds described in Examples 21 and 42 was orally administered to the neuropathic pain model mice with a sonde for oral administration in mice, and effect thereof on the pain threshold measured in the von Frey filament test was observed.

human P2X4 receptor = human P2X4 receptor (Homo sapiens (Human), UniProt Q99571); assay: P2X4 receptor antagonist activity (ATP-induced intracellular calcium, Fura-2 AM); type: cell-based; settings: 1321N1 cells stably expressing human P2X4 receptor; test substance 15 minutes before addition of ATP; Fura-2 AM F340/F380; read-out: Inhibitory activity IC50
Sequence of human P2X4 receptor (Q99571 whole entry): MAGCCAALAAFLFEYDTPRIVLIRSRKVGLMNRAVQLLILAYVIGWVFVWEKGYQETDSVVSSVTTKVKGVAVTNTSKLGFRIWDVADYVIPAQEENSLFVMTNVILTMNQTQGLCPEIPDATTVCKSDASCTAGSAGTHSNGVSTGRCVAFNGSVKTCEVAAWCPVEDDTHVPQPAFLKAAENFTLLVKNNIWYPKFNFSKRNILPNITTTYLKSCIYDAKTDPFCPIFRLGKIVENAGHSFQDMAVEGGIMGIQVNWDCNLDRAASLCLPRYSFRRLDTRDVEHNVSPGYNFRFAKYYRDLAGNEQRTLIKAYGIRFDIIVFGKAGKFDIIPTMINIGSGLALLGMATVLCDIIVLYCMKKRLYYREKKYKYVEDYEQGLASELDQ
Experimental: The ATP receptor (human P2X4) was introduced into the 1321N1 cells, and the cells were used as a stable ATP receptor expression system. The P2X4-expressing 1321N1 cells were seeded on a 96-well plate, cultured under the conditions of 37° C. and 5% CO2 for 24 hours, and used for calcium measurement. […] For the measurement, a microplate reader, Fluostar Optima (BMG Labtech), was used. The light emitted from a xenon lamp was passed through 340 nm and 380 nm filters, respectively, and irradiated on the cells, fluorescences of 510 nm, F340 and F380, emitted from the cells were measured, and change of the ratio F340/F380 was used as an index of change of intracellular calcium level. The measurement was performed by adding ATP to each well at a final concentration of 1 μM, and observing the ATP-induced Ca^2+ response over time.
The 1321N1 cells stably expressing human P2X4 receptor were seeded on a 96-well plate, cultured under the conditions of 37° C. and 5% CO2 for 24 hours, and then used for intracellular calcium measurement. Fura-2 AM, which is a calcium fluorescent indicator, was used for the intracellular calcium measurement. […] The ratio of fluorescence values obtained with excitation lights of 340 nm and 380 nm was used as an index of the change of intracellular calcium level, and the inhibitory activity of the test substance was calculated on the basis of the comparison with the value obtained in the absence of the test substance (control).

Q: For `Cl.O=C1CC(=O)N(c2ccc(-n3ccnc3CCc3ccccc3)cc2)c2ccc3ccccc3c2N1` [Example 21, 5-[4-(2-Phenethyl-1H-imidazol-1-yl)phenyl]-1H-naphtho[1,2-b][1,4]diazepine-2,4(3H,5H)-dione hydrochloride], which “pain threshold of diseased limb (von Frey filament test)” value [1] is on record?
A: increased the pain threshold of diseased limb

Q: What about the analgesic activity [1] of the same molecule?
A: superior analgesic activity

Q: And the pIC50 (human P2X4 receptor)?
A: 7.11

Q: Which “pain threshold of diseased limb (von Frey filament test)” value [1] does the source give for `COc1cccc(CCc2nccn2-c2ccc(N3C(=O)CC(=O)Nc4c3ccc3ccccc43)cc2)c1.Cl` [Example 42, 5-[4-[2-(3-Methoxyphenethyl)-1H-imidazol-1-yl]phenyl]-1H-naphtho[1,2-b][1,4]diazepine-2,4(3H,5H)-dione hydrochloride] here?
A: increased the pain threshold of diseased limb

Q: What about the analgesic activity [1] of the same molecule?
A: superior analgesic activity

Q: And the pIC50 (human P2X4 receptor)?
A: 7.04

Q: How did the pIC50 (human P2X4 receptor) turn out when `NC(=O)c1cccc(CCc2nccn2-c2ccc(N3C(=O)CC(=O)Nc4c3ccc3ccccc43)cc2)c1` [Example 57, 3-[2-[1-[4-(2,4-Dioxo-3,4-dihydro-1H-naphtho[1,2-b][1,4]diazepin-5(2H)-yl)phenyl]-1H-imidazol-2-yl]ethyl]benzamide] was run?
A: 6.89

Q: How did the pIC50 (human P2X4 receptor) turn out when `COc1cccc(CCc2nccn2-c2ccc(N3C(=O)CC(=O)Nc4c3ccc3c4CCC3)cc2)c1` [Example 61, 5-[4-[2-(3-Methoxyphenethyl)-1H-imidazol-1-yl]phenyl]-5,8,9,10-tetrahydroindeno[4,5-b][1,4]diazepine-2,4(1H,3H)-dione hydrochloride] was run?
A: 7.13

Q: How did the pIC50 (human P2X4 receptor) turn out when `O=C1CC(=O)N(c2ccc(-n3ccnc3CCc3ccsc3)cc2)c2ccc3ccccc3c2N1` [Example 62, 5-[4-[2-[2-(Thiophen-3-yl)ethyl]-1H-imidazol-1-yl]phenyl]-1H-naphtho[1,2-b][1,4]diazepine-2,4(3H,5H)-dione hydrochloride] was run?
A: 7.06

Q: How did the pIC50 (human P2X4 receptor) turn out when `COc1cc(N2C(=O)CC(=O)Nc3c2ccc2ccccc32)ccc1-c1nccn1CCc1ccccc1` [Example 64, 5-[3-Methoxy-4-(1-phenethyl-1H-imidazol-2-yl)-phenyl]-1H-naphtho[1,2-b][1,4]diazepine-2,4(3H,5H)-dione] was run?
A: 6.28

Q: `O=C1CC(=O)N(c2ccc(-c3nccn3CCc3ccccc3)c(O)c2)c2ccc3ccccc3c2N1` [Example 65, 5-[3-Hydroxy-4-(1-phenethyl-1H-imidazol-2-yl)-phenyl]-1H-naphtho[1,2-b][1,4]diazepine-2,4(3H,5H)-dione] was tested. Which pIC50 (human P2X4 receptor) did it give?
A: 6.89

Q: With `O=C1CC(=O)N(c2ccc(-n3ccnc3CCc3ccco3)cc2)c2ccc3ccccc3c2N1` [Example 66, 5-[4-[2-[2-(Furan-2-yl)ethyl]-H-imidazol-1-yl]-phenyl]-1H-naphtho[1,2-b][1,4]diazepine-2,4(3H,5H)-dione hydrochloride] as the molecule, how does the pIC50 (human P2X4 receptor) read?
A: 6.26

Q: With `O=C1CC(=O)N(c2ccc(-n3ccnc3CCc3ccccc3F)cc2)c2ccc3c(c2N1)CCC3` [Example 67, 5-[4-[2-(2-Fluorophenethyl)-1H-imidazol-1-yl]phenyl]-5,8,9,10-tetrahydroindeno[4,5-b][1,4]diazepine-2,4(1H,3H)-dione] as the molecule, how does the pIC50 (human P2X4 receptor) read?
A: 7.28

Q: How did the pIC50 (human P2X4 receptor) turn out when `O=C1CC(=O)N(c2ccc(-n3ccnc3COc3ccccc3)cc2)c2ccc3ccccc3c2N1` [Example 68, 5-[4-[2-(Phenoxymethyl)-1H-imidazol-1-yl]phenyl]-1H-naphtho[1,2-b][1,4]diazepine-2,4(3H,5H)-dione] was run?
A: 6.10

Q: With `CC(C)(Cc1nnnn1-c1ccc(N2C(=O)CC(=O)Nc3c2ccc2ccccc32)cc1)c1ccccn1` [Example 69, 5-[4-[5-[2-Methyl-2-(pyridin-2-yl)propyl]-1H-tetrazol-1-yl]phenyl]-1H-naphtho[1,2-b][1,4]diazepine-2,4(3H,5H)-dione hydrochloride] as the molecule, how does the pIC50 (human P2X4 receptor) read?
A: 5.27

Q: How did the pIC50 (human P2X4 receptor) turn out when `O=C1CC(=O)N(c2ccc(-n3ccnc3CCc3ccccn3)cc2)c2ccc3ccccc3c2N1` [Example 71, 5-[4-[[2-(Pyridin-2-yl)ethyl]-1H-imidazol-1-yl]phenyl]-1H-naphtho[1,2-b][1,4]diazepine-2,4(3H,5H)-dione dihydrochloride] was run?
A: 6.23

Q: With `O=C1CC(=O)N(c2ccc(-c3nc[nH]c3-c3ccccc3)cc2)c2ccc3ccccc3c2N1` [Example 72, 5-[4-(5-Phenyl-1H-imidazol-4-yl)phenyl]-1H-naphtho[1,2-b][1,4]diazepine-2,4(3H,5H)-dione hydrochloride] as the molecule, how does the pIC50 (human P2X4 receptor) read?
A: 5.47

Q: `CC1(C)CN(c2ccc(N3C(=O)CC(=O)Nc4c3ccc3ccccc43)cc2)C(CCc2ccccc2)=N1` [Example 74, 5-[4-(4,4-Dimethyl-2-phenethyl-4,5-dihydro 1H-imidazol-1-yl)phenyl]-1H-naphtho[1,2-b][1,4]diazepine-2,4(3H,5H)-dione hydrochloride] was tested. Which pIC50 (human P2X4 receptor) did it give?
A: 5.60

Q: With `O=C1CC(=O)N(c2ccc(-n3ccnc3CCc3cccc(F)c3)cc2)c2ccc3c(c2N1)CCC3` [Example 79, 5-[4-[2-(3-Fluorophenethyl)-1H-imidazol-1-yl]phenyl]-5,8,9,10-tetrahydroindeno[4,5-b][1,4]diazepine-2,4(1H,3H)-dione hydrochloride] as the molecule, how does the pIC50 (human P2X4 receptor) read?
A: 7.41

Q: `O=C1CC(=O)N(c2ccc(-n3ccnc3CNc3ccccc3)cc2)c2ccc3ccccc3c2N1` [Example 80, 5-[4-[2-[(Phenylamino)methyl]-1H-imidazol-1-yl]phenyl]-1H-naphtho[1,2-b][1,4]diazepine-2,4(3H,5H)-dione] was tested. Which pIC50 (human P2X4 receptor) did it give?
A: 5.89

Q: `COc1c(F)cccc1CCc1nccn1-c1ccc(N2C(=O)CC(=O)Nc3c2ccc2ccccc32)cc1` [Example 83, 5-[4-[(2-(3-Fluoro-2-methoxyphenyl)ethyl)-1H-imidazol-1-yl]phenyl]-1H-naphtho[1,2-b][1,4]diazepine-2,4(3H,5H)-dione hydrochloride] was tested. Which pIC50 (human P2X4 receptor) did it give?
A: 7.06
